Patent US20160222014A1, “COMPOUNDS FOR REGULATING FAK AND/OR SRC PATHWAYS” (ASANA BIOSCIENCES, LLC, priority 2013, published 2016)

Target: T1, recombinant human FAK1 (Homo sapiens, UniProt Q05397)
T1 construct: fused on or other part: N-terminal 6xHis tag
Assay: FAK1 HTRF assay
Assay type: biochemical
Details: not given
Outline: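 His-tagged human FAK1 (residues 692–end, Sf9-expressed), 10 nM final, with 0.5 μM biotinylated gastrin-precursor Tyr87 peptide and a 10 μM final reagent in pH 7.4 buffer, 45 min at rt. Detection used Eu anti-pTyr antibody plus SA-APC (665/620 nm). Compounds top concentration 10 μM; IC50 from % inhibition.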

T1 sequence (Q05397 422-680 limits assumed): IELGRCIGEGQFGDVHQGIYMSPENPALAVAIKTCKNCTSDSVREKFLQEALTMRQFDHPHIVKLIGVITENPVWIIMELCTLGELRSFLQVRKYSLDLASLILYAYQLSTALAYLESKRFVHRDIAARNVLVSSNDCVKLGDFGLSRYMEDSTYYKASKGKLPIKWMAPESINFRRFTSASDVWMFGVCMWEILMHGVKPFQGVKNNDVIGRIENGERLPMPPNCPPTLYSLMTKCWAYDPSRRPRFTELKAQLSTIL

IC50, < 20 nM:
CN(c1ncccc1Cn1ccc2cnc(Nc3ccc4c(c3)CCC(=O)N4)cc21)S(C)(=O)=O [Example 31]
CN(c1ncccc1Cn1ccc2cnc(Nc3ccc4[nH]c(=O)[nH]c4c3)nc21)S(C)(=O)=O [Example 77]
CN(c1ccccc1Cn1ncc2cnc(Nc3ccc4c(c3)CCC(=O)N4)cc21)S(C)(=O)=O [Example 225]
COc1cc(Nc2ncc3ccn(Cc4ccccc4N(C)S(C)(=O)=O)c3n2)ccc1N1CCN(CCO)CC1 [Example 421]
CN1CCN(c2ccc(Nc3cc4c(ccn4S(=O)(=O)c4ccccc4C#N)cn3)cc2)CC1 [Example 506]
CN(c1ccccc1Cn1ccc2cnc(Nc3ccc4c(c3)CC3CNCCN43)nc21)S(C)(=O)=O (centres unmarked) [Example 526]

Target: T2, FAK phosphorylated at Y397 in HEK-FAK cell line overexpressing human FL FAK protein (Homo sapiens, UniProt Q05397)
T2 construct: expressed in transfected cells
T2 sequence (Q05397 whole entry): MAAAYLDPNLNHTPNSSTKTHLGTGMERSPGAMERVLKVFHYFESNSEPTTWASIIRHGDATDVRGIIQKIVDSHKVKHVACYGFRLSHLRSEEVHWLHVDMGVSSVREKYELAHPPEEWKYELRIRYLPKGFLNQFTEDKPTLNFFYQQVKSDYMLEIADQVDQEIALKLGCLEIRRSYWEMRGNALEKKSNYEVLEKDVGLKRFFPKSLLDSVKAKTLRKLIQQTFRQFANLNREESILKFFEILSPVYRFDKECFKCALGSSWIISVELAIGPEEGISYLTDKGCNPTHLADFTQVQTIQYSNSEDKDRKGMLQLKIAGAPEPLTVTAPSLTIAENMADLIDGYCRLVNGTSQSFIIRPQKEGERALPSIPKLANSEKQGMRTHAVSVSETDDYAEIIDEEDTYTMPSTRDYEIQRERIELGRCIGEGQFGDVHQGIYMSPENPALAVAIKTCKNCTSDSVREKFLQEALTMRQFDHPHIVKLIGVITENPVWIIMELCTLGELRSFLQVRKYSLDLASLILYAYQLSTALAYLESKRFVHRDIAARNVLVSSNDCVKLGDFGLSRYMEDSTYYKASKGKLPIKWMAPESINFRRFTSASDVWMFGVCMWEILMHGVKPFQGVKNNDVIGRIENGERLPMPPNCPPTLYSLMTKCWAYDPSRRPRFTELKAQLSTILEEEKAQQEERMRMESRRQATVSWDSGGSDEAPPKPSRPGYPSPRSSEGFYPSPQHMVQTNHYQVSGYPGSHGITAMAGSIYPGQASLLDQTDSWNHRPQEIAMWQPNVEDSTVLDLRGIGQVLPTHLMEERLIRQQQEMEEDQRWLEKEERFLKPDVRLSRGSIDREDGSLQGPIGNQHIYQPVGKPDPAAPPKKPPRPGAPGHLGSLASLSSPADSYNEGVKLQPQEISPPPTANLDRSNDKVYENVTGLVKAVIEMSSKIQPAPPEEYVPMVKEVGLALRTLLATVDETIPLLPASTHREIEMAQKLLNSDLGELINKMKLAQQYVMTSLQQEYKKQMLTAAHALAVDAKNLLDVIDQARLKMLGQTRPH
Assay: Cell based assay, Phospho-FAK ELISA
Details: HEK stb; read-out: pFAK EC50 (μM) HEK stb
From the text: D. Cell Based Assay-Phospho-FAK ELISA
The DuoSet IC ELISA (R&D systems—Cat no. DYC4528-5) provided the basic components required for the development of sandwich ELISAs to measure Focal Adhesion Kinase 1 (FAK) phosphorylated at Y397 in cell lysates. An immobilized capture antibody specific for FAK, also known as PTK2, binds both phosphorylated and unphosphorylated protein. After washing away unbound material, a biotinylated detection antibody specific for FAK phosphorylated at Y397 was used to detect only phosphorylated protein, utilizing a standard Streptavidin-HRP format. The cell line used for the assay was a stable HEK-FAK cell line overexpressing human FL FAK protein, which was generated as follows.
HEK293 cells (ATCC® CRL-1573™, 10801 University Boulevard, Manassas, Va. 20110 USA) were seeded in four 100 mm petri dishes at a seeding density of 1.5×10^6 cells per plate and incubated overnight at 37° C. in a 5% CO2 incubator. The transfection mix was prepared as follows. (A) 10 μg DNA (pCDNA4 V5/HisA vector containing Zeocin as mammalian selection marker, procured from Invitrogen) with the full length human FAK gene represented by the nucleotide sequence provided in NCBI Reference Sequence: NM_153831.3, SEQ ID NO: 1:
was added to 1.5 mL Opti-MEM® (reduced serum media is a modification of Eagle's Minimum Essential Media, buffered with HEPES and sodium bicarbonate and supplemented with hypoxanthine, thymidine, sodium pyruvate, L-glutamine, trace elements and growth factors commercially available from Invitrogen) and incubated at room temperature for 5 minutes. (B) 30 μL Lipofectamine™ Transfection reagent (Life Technologies) was added to 1.5 mL Opti-MEM® and incubated at room temperature for 5 minutes. Following this, (a) and (b) were mixed and incubated at room temperature for 20 minutes. Media was removed from cells and washed with 1× phosphate buffered saline (PBS) and the transfection mix prepared above was mixed with 3 mL of Opti-MEM®, added to the cells and incubated at 37° C. Four hours later, 6 mL of 20% Dulbecco's Modified Eagle Medium (DMEM) was added to the plates and incubated at 37° C. in a 5% CO2 incubator. Approximately 72 hours after transfection, cells were subcultured at various dilutions with fresh medium containing 0.8 mg/mL Zeocin™ (Life Technologies). Cells were replenished with selective medium every 3-4 days until cell foci were identified in the FAK transfected cells and most of the cells died in the control plates. Cells from these foci were grown in the presence of selective media and the expression of FAK was confirmed by Western Blotting. Over expression of FAK in the stably-transfected cells was quantified in the cell-based ELISA assay described below by determining the signal window, with a signal window of 2 or above considered to be robust). The HEK-FAK stable cell line thus was maintained in 0.8 mg/mL Zeocin™ (Life Technologies) and used in cell-based ELISA to assess autophosphorylation of FAK.
(i) Materials • 1. Phospho-FAK (Y397)-Capture Antibody • 2. Phospho-FAK (Y397)-Detection Antibody • 3. Streptavidin-HRP • 4. Cells used for the assay-HEK over expressing human FL FAK protein
(ii) Solutions • PBS—137 mM NaCl, 2.7 mM KCl, 8.1 mM Na2HPO4, 1.5 mM KH2PO4, pH 7.2-7.4, 0.2 μm filtered. • Wash Buffer—0.05% Tween20™ in PBS, pH 7.2-7.4 • Block Buffer—1% BSA, 0.05% NaN3, in PBS, pH 7.2-7.4. • IC Diluent #1-1% BSA in PBS, pH 7.2-7.4, 0.2 μm filtered. • IC Diluent #8-1 mM EDTA, 0.5% Triton™ X-100, 5 mM NaF in PBS, pH 7.2-7.4. IC Diluent #8 was also the base buffer for IC Diluent #3, IC Diluent #7, and Lysis. • Buffer #6. […]

EC50, > 1 µM:
CN(c1ncccc1Cn1ccc2cnc(Nc3ccc4c(c3)CCC(=O)N4)cc21)S(C)(=O)=O [Example 31]
CN(c1ncccc1Cn1ccc2cnc(Nc3ccc4[nH]c(=O)[nH]c4c3)nc21)S(C)(=O)=O [Example 77]
CN(C)Cc1ccc(Nc2ncc3ccn(Cc4cccnc4N(C)S(C)(=O)=O)c3n2)cc1 [Example 207]
CN(c1ncccc1Cn1ccc2cnc(Nc3ccc4c(c3)OCCN4)nc21)S(C)(=O)=O [Example 221]
CN(c1ccccc1Cn1ncc2cnc(Nc3ccc4c(c3)CCC(=O)N4)cc21)S(C)(=O)=O [Example 225]
Cc1ccccc1S(=O)(=O)n1ccc2cnc(Nc3ccc(N4CCNCC4)cc3)nc21 [Example 233]
O=S(=O)(c1ccccc1Cl)n1ncc2cnc(Nc3ccc(N4CCNCC4)cc3)nc21 [Example 254]
O=S(=O)(c1cccc(Cl)c1)n1ncc2cnc(Nc3ccc(N4CCNCC4)cc3)cc21 [Example 308]
CC(=O)N1CCN(c2ccc(Nc3cc4c(cn3)cnn4S(=O)(=O)c3ccccc3C#N)cc2)CC1 [Example 341]
CN(c1ncccc1Cn1ccc2cnc(Nc3ccc(N4CC5CC4CN5)cc3)nc21)S(C)(=O)=O (centres unmarked) [Example 372]
CN(c1ncccc1Cn1ncc2cnc(Nc3ccc(N4CCC(O)CC4)cc3)cc21)S(C)(=O)=O [Example 394]
COc1cc(Nc2ncc3ccn(Cc4ccccc4N(C)S(C)(=O)=O)c3n2)ccc1N1CCN(CCO)CC1 [Example 421]
CN(c1ccccc1Cn1ccc2cnc(Nc3ccc4c(c3)C(=O)NC4=O)nc21)S(C)(=O)=O [Example 435]
COc1c(Nc2ncc3ccn(Cc4ccccc4N(C)S(C)(=O)=O)c3n2)ccc(N2CCNCC2)c1F [Example 456]
CC1(C)CN(S(=O)(=O)c2ccccc2OC(F)F)c2nc(Nc3ccc(N4CCNCC4)cc3)ncc21 [Example 464]
C[C@H]1CN(C)CCN1c1ccc(Nc2ncc3ccn(Cc4cccnc4N(C)S(C)(=O)=O)c3n2)cc1 [Example 497]
CN1CCN(c2ccc(Nc3cc4c(ccn4S(=O)(=O)c4ccccc4C#N)cn3)cc2)CC1 [Example 506]
CN1CCCN(c2ccc(Nc3ncc4ccn(Cc5ccccc5N(C)S(C)(=O)=O)c4n3)cc2)CC1 [Example 520]
CC1CN(c2ccc(Nc3ncc4ccn(Cc5cccnc5N(C)S(C)(=O)=O)c4n3)cc2)CC(C)N1 (centres unmarked) [Example 522]
CN(c1ccccc1Cn1ccc2cnc(Nc3ccc4c(c3)CC3CNCCN43)nc21)S(C)(=O)=O (centres unmarked) [Example 526]
CN(C)C1CCN(c2ccc(Nc3ncc4ccn(Cc5cccnc5N(C)S(C)(=O)=O)c4n3)cc2)CC1 [Example 530]
C[C@@H]1CN(c2ccc(Nc3cc4c(ccn4S(=O)(=O)c4ccccc4C#N)cn3)cc2)CCN1 [Example 537]
CN(c1ncccc1Cn1ccc2cnc(Nc3ccc4c(c3)CC3CNCCN43)nc21)S(C)(=O)=O (centres unmarked) [Example 538]
CN(c1ncccc1Cn1ccc2cnc(Nc3ccc(N4CCNC(C)(C)C4=O)cc3)nc21)S(C)(=O)=O [Example 540]
CN(c1ncccc1Cn1ccc2cnc(Nc3ccc(N4CCCNCC4)cc3)nc21)S(C)(=O)=O [Example 549]
CN1C(=O)Cc2cc(Nc3ncc4ccn(Cc5cccnc5N(C)S(C)(=O)=O)c4n3)ccc21 [Example 560]
C[C@@H]1CN(c2ccc(Nc3ncc4ccn(Cc5cccnc5N(C)S(C)(=O)=O)c4n3)cc2F)CCN1 [Example 561]
CN(c1ccccc1Cn1ccc2cnc(Nc3ccc(N4CCNCC4)c(CO)c3)nc21)S(C)(=O)=O [Example 568]
CN(C)C1CN(c2ccc(Nc3ncc4ccn(Cc5cccnc5N(C)S(C)(=O)=O)c4n3)cc2)C1 [Example 580]
CN(C)C1CCN(c2ccc(Nc3ncc4ccn(Cc5cccnc5N(C)S(C)(=O)=O)c4n3)cc2)C1 (centres unmarked) [Example 589]
CN(c1ncccc1Cn1ccc2cnc(Nc3ccc(OCCN4CCOCC4)cc3)nc21)S(C)(=O)=O [Example 613]
CCC1CN(c2ccc(Nc3ncc4ccn(Cc5cccnc5N(C)S(C)(=O)=O)c4n3)cc2)CCN1 (centres unmarked) [Example 645]
C[C@H](O)CN1CCN(c2ccc(Nc3ncc4ccn(Cc5cccnc5N(C)S(C)(=O)=O)c4n3)cc2)C[C@@H]1C [Example 663, N-(3-((2-((4-((S)-4-((S)-2-Hydroxypropyl)-3-methylpiperazin-1-yl)phenyl)amino)-7H-pyrrolo[2,3-d]pyrimidin-7-yl)methyl)pyridin-2-yl)-N-methylmethanesulfonamide]
C[C@@H](O)CN1CCN(c2ccc(Nc3ncc4ccn(Cc5cccnc5N(C)S(C)(=O)=O)c4n3)cc2)CC1 [Example 666]
CN(c1ncccc1Cn1ccc2cnc(Nc3ccc4[nH]ccc4c3)nc21)S(C)(=O)=O [Example 667]
CN(c1ncccc1Cn1ccc2cnc(Nc3ccc4[nH]c(C5CCNCC5)cc4c3)nc21)S(C)(=O)=O [Example 677]
CN(c1ncccc1Cn1ccc2cnc(Nc3ccc(NC4CCNCC4)cc3)nc21)S(C)(=O)=O [Example 684]
CN(c1ncccc1Cn1ccc2cnc(Nc3ccc(-c4ccc(=O)[nH]c4)cc3)nc21)S(C)(=O)=O [Example 688]
C[C@H](O)CN1CCN(c2ccc(Nc3ncc4ccn(Cc5cccnc5N(C)S(C)(=O)=O)c4n3)cc2)C[C@H]1C [Example 694]
CN(c1ncccc1Cn1ccc2cnc(Nc3ccc4[nH]c(C(=O)N5CCNCC5)cc4c3)nc21)S(C)(=O)=O [Example 696]
CN(c1ccccc1Cn1ccc2cnc(Nc3ccc4[nH]c(C(=O)N5CCNCC5)cc4c3)nc21)S(C)(=O)=O [Example 698]
C[C@H]1CN(c2ccc(Nc3ncc4ccn(Cc5ccccc5NS(=O)(=O)CCCF)c4n3)cc2)CCN1 [Example 723]
C[C@@H]1CN(c2ccc(Nc3ncc4c(n3)N(c3ccccn3)CC4(C)C)cc2)CCN1 [Example 726]
CN(c1ncccc1Cn1ccc2cnc(Nc3ccc(N4CCNC(CF)C4)cc3)nc21)S(C)(=O)=O (centres unmarked) [Example 737, N-(3-((2-((4-(3-(fluoromethyl)piperazin-1-yl)phenyl)amino)-7H-pyrrolo[2,3-d]pyrimidin-7-yl)methyl)pyridin-2-yl)-N-methylmethanesulfonamide]
CN(c1ncccc1Cn1ccc2cnc(Nc3ccc(N4CCCC(N)C4)cc3)nc21)S(C)(=O)=O (centres unmarked) [Example 776]

Same assay, conditions: HEK stb; read-out: pFAK EC50 HEK stb

EC50, > 1 µM:
Cc1cc(Nc2ncc3ccn(Cc4cccnc4N(C)S(C)(=O)=O)c3n2)ccc1C1CCN(CCO)CC1 [Example 887]
CNC(=O)c1ccc(Nc2ncc3ccn(Cc4cccnc4N(C)S(C)(=O)=O)c3n2)cc1 [Example 982]
